Assays:
human subjects = assay: Montreal Cognitive Assessment and Mini-Mental State Examination; assay type: in vivo
Experimental: (§1) Mg-DHA composition is prepared and formulated as capsules to provide a daily dose of 150 mg of elemental magnesium. The human subjects are divided into control and test groups and provided DHA, Mg Citrate (equivalent to 150 mg of elemental magnesium) or Mg-DHA capsules for 30 consecutive days. On day 1 and day 30, two cognitive tests, Montreal Cognitive Assessment and Mini-Mental State Examination (Int J Geriatr Psychiatry. 2010 February; 25(2):111-20) are administered.
as §1, with “Mg-DHA-LysoPC” for “Mg-DHA”, “either DHA-LysoPC,” for “DHA,”, “magnesium), Mg-DHA-LysoPC” for “magnesium) or Mg-DHA”
Mg-EPA composition is prepared and formulated as capsules to provide a daily dose of 150 mg of elemental magnesium. The human subjects are divided into control and test groups and provided EPA, Mg Citrate (equivalent to 150 mg elemental magnesium), or Mg-EPA capsules for 30 consecutive days. On day 1 and day 30, two cognitive tests, Montreal Cognitive Assessment and Mini-Mental State Examination (Int J Geriatr Psychiatry. 2010 February; 25(2):111-20) are administered.
as §1, with “Zn-DHA or zinc gluconate” for “Mg-DHA”, “30” for “a daily dose of 150”, “zinc.” for “magnesium.”, “zinc gluconate,” for “Mg Citrate (equivalent to 150 mg of elemental magnesium)”, “Zn-DHA capsules, 3 times a day” for “Mg-DHA capsules”
(§2) Zn-DHA or zinc gluconate composition is prepared and formulated as capsules to provide 30 mg of elemental zinc. The human subjects are divided into control and test groups and provided DHA-LysoPC, zinc gluconate, or Zn-DHA-LysoPC capsules, 3 times a day for 30 consecutive days. On day 1 and day 30, two cognitive tests, Montreal Cognitive Assessment and Mini-Mental State Examination (Int J Geriatr Psychiatry. 2010 February; 25(2):111-20) are administered.
as §2, with “provide a daily dosage of” for “provide”, “provided EPA,” for “provided DHA-LysoPC,”, “or Zn-EPA capsules” for “or Zn-DHA-LysoPC capsules, 3 times a day”

[1] = system: Patients presenting symptoms of migraine; assay: migraine pain relief on visual analog scale (VAS); assay type: in vivo, human; conditions: reviewed after 4 hours
Experimental: Patients presenting symptoms of migraine are prescribed Zn-DHA or zinc gluconate capsules formulated to provide a daily dosage of 30 mg of elemental zinc. The symptoms of migraine are reviewed after 4 hours. […] For each group of patients, Excedrin is prescribed as rescue medicine.
Patients presenting symptoms of migraine are prescribed Zn-DHA-LysoPC or zinc gluconate formulated to provide a daily dosage of 30 mg of elemental zinc. The symptoms of migraine are reviewed after 4 hours. […] For each group of patients, Excedrin is prescribed as rescue medicine.
Patients presenting symptoms of migraine are prescribed Zn-EPA capsules formulated to provide a daily dosage of 30 mg of elemental Zn. The symptoms of migraine are reviewed after 4 hours. […] For each group of patients, Excedrin is prescribed as rescue medicine.

[2] = capsules, 150 mg elemental magnesium daily for 30 days, compared with the fatty acid alone or Mg Citrate
[3] = 150 mg elemental magnesium daily, compared with the fatty acid alone or Mg Citrate
[4] = capsules providing 30 mg elemental zinc, 30 consecutive days, compared with the fatty acid alone or zinc gluconate
[5] = 30 mg elemental zinc daily, compared with the fatty acid alone or zinc gluconate

Row | Structure (SMILES) | cognitive tests (Montreal Cognitive Assessment, Mini-Mental State Examination) (human subjects; [2]) | pain relief on a visual analog scale (VAS) [1, 3] | cognitive tests (Montreal Cognitive Assessment, Mini-Mental State Examination) (human subjects; [4]) | pain relief on a visual analog scale (VAS) [1, 5]
1 | CC/C=C\C/C=C\C/C=C\C/C=C\C/C=C\C/C=C\CCC(=O)[O-].CC/C=C\C/C=C\C/C=C\C/C=C\C/C=C\C/C=C\CCC(=O)[O-].[Mg+2] [Mg-DHA] | statistically significant improvement | significant pain relief | – | –
2 | CC/C=C\C/C=C\C/C=C\C/C=C\C/C=C\CCCC(=O)[O-].CC/C=C\C/C=C\C/C=C\C/C=C\C/C=C\CCCC(=O)[O-].[Mg+2] [Mg-EPA] | statistically significant improvement | significant pain relief | – | –
3 | CC/C=C\C/C=C\C/C=C\C/C=C\C/C=C\C/C=C\CCC(=O)[O-].CC/C=C\C/C=C\C/C=C\C/C=C\C/C=C\C/C=C\CCC(=O)[O-].[Zn+2] [Zn-DHA] | – | – | statistically significant improvement | significant pain relief
4 | CC/C=C\C/C=C\C/C=C\C/C=C\C/C=C\CCCC(=O)[O-].CC/C=C\C/C=C\C/C=C\C/C=C\C/C=C\CCCC(=O)[O-].[Zn+2] [Zn-EPA] | – | – | statistically significant improvement | significant pain relief

Source: patent publication US20130123355A1, “Fatty acids and metal ions compositions and uses thereof” (priority 2011, published 2013)
